Data reported in PubChem BioAssay (NCI).
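Protocol summary: plate cells (96-well), add compound at 5 concentrations, incubate 48 h, interpolate endpoints linearly. Here, GI50 denotes the concentration required for 50% inhibition of growth. TGI: concentration producing complete growth inhibition.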

Columns and labels:
Assay in all cases: DTP human tumour cell line panel, 48 h
HS 578T breast = tested on: HS 578T breast
NCI/ADR-RES ovarian = tested on: NCI/ADR-RES ovarian
SF-539 CNS = tested on: SF-539 CNS
SK-MEL-28 melanoma = tested on: SK-MEL-28 melanoma
T-47D breast = tested on: T-47D breast
MDA-N = tested on: MDA-N
RXF 393 renal = tested on: RXF 393 renal
DLD-1 colon = tested on: DLD-1 colon
KM20L2 colon = tested on: KM20L2 colon
HOP-18 NSCLC = tested on: HOP-18 NSCLC
M19-MEL melanoma = tested on: M19-MEL melanoma
SR leukemia = tested on: SR leukemia
786-0 renal = tested on: 786-0 renal

SMILES | GI50 (HS 578T breast) | TGI (HS 578T breast) | TGI (NCI/ADR-RES ovarian) | TGI (SF-539 CNS) | TGI (SK-MEL-28 melanoma) | TGI (T-47D breast) | TGI (MDA-N) | TGI (RXF 393 renal) | TGI (DLD-1 colon) | TGI (KM20L2 colon) | TGI (HOP-18 NSCLC) | TGI (M19-MEL melanoma) | TGI (SR leukemia) | TGI (786-0 renal) | GI50 (NCI/ADR-RES ovarian) | GI50 (SF-539 CNS) | GI50 (SR leukemia) | GI50 (SK-MEL-28 melanoma) | GI50 (T-47D breast) | GI50 (RXF 393 renal)
COc1ccc2c(c1)c(-c1nc(-c3c[nH]c4ncccc34)cs1)cn2CCCCN1CCCCC1 | 1.66 µM | 4.38 µM | – | – | – | – | – | – | – | – | – | – | – | – | – | – | – | – | – | –
Cc1nc2ccc(S(=O)(=O)Nc3nccs3)cc2c(=O)n1NS(=O)(=O)c1nccs1 | – | > 100 µM | > 100 µM | > 100 µM | > 100 µM | > 100 µM | > 100 µM | > 100 µM | – | – | – | – | – | – | – | – | – | – | – | –
CN(C)CCNC(=O)c1cccc2[nH]c(-c3ccccn3)nc12 | – | – | > 87.7 µM | > 100 µM | > 58 µM | – | – | > 100 µM | > 100 µM | > 100 µM | > 87 µM | > 91.8 µM | – | – | – | – | – | – | – | –
CCOC(=O)c1sc2nc(SC)nc(Nc3ccc4c(c3)OCCO4)c2c1N | – | – | 44.7 µM | 18.2 µM | > 100 µM | 26.2 µM | > 100 µM | 16.9 µM | – | – | – | – | > 100 µM | – | – | – | – | – | – | –
CNC(C)C(O)c1ccc2oc3cc(=O)c4ccccc4c-3nc2c1 (stereo not drawn) | – | 8.48 µM | > 100 µM | 5.99 µM | 27.6 µM | 98.4 µM | – | 84.8 µM | – | – | – | – | – | – | – | – | – | – | – | –
CCCCC1C=Cn2c(=O)oc3c(OC(C)C)c(C)c(O)c1c32 (stereo not drawn) | – | 14.3 µM | 5.88 µM | 19.2 µM | 8.33 µM | 5.93 µM | 9.67 µM | – | – | – | – | – | 6.17 µM | – | – | – | – | – | – | –
O=C1c2ccccc2OCC12OC21C=CC(Cl)=CC1 (stereo not drawn) | – | – | 50.1 µM | > 100 µM | 67.4 µM | – | 43.8 µM | 46.8 µM | – | – | – | – | 17.5 µM | – | – | – | – | – | – | –
O=C(CBr)c1ccc2cc(Br)c3ccccc3c2c1 | – | 59.6 µM | > 100 µM | 41.7 µM | 57.5 µM | – | – | 38.7 µM | – | – | – | – | 46.3 µM | > 100 µM | – | – | – | – | – | –
CCC(=O)OCN(C)c1nc(N(C)COC(=O)CC)nc(N(C)COC(=O)CC)n1 | – | > 100 µM | > 100 µM | – | > 100 µM | > 100 µM | > 100 µM | 25.5 µM | – | – | – | – | 71 µM | – | – | – | – | – | – | –
O=C(N[C@@H](Cc1coc2ccccc12)B(O)O)[C@@H]1C[C@H]2CC[C@@H]1O2 | 3.81 µM | 66.6 µM | > 100 µM | 6.12 µM | > 100 µM | > 100 µM | – | 5.94 µM | – | – | – | – | > 100 µM | – | 48 µM | 1.72 µM | 1.26 µM | 4.5 µM | 2.77 µM | 1.86 µM
COc1ccc(C2COc3c(ccc(O)c3C)C2)cc1OC (stereo not drawn) | – | – | > 200 µM | 197 µM | > 196 µM | – | – | 131 µM | > 200 µM | > 200 µM | 30.8 µM | > 200 µM | – | – | – | – | – | – | – | –
COc1ccc(/C=N/n2cnc3c(c2=O)SC(=C(C#N)C#N)N3c2ccccc2)cc1 | – | – | – | > 100 µM | > 100 µM | – | – | – | > 100 µM | – | > 100 µM | > 100 µM | > 100 µM | – | – | – | – | – | – | –
CCCO[C@@H]1[C@@H](OC(C)=O)[C@@H](OC(C)=O)C(C)(C)/C=C/[C@H](C)C(=O)[C@@]2(OC(C)=O)C[C@@](C)(OC(C)=O)[C@H](OC(C)=O)[C@@H]2[C@H]2OC(=O)CC[C@@]12OC(=O)c1ccccc1 | – | > 25 µM | > 25 µM | > 25 µM | – | > 25 µM | > 25 µM | > 25 µM | – | – | – | – | – | – | – | – | – | – | – | –
COC(=O)C1=C(OC)[C@H]2C#C/C=C\C#C[C@@H]3Nc4c(cc(O)c5c4C(=O)c4ccccc4C5=O)[C@]24O[C@@]34[C@H]1C | – | 3.82 µM | < 0.01 µM | < 0.01 µM | – | – | 0.0113 µM | – | – | – | – | – | < 0.01 µM | < 0.01 µM | – | – | – | – | – | –
C/C(=N\NC(=S)N1CCCC1)c1nc2ncccc2[nH]1 | – | > 100 µM | > 100 µM | 0.523 µM | 28.2 µM | > 100 µM | > 100 µM | – | – | – | – | – | > 100 µM | 21.7 µM | – | – | – | – | – | –
C(=Nc1ccc2c(c1)Cc1ccccc1-2)c1ccccn1 | – | > 100 µM | > 100 µM | – | > 100 µM | > 100 µM | > 100 µM | > 100 µM | – | – | – | – | > 100 µM | > 100 µM | – | – | – | – | – | –
